≈ marks a conversion by molar mass, not a printed value. Where two headings read alike, the source gives them in different places.
Tests used:
[1] = tested on: Salmonella paratyphi B ATCC 10719; assay: MIC by broth microdilution method (CLSI M07-A8 / M11-A7); efficiency coefficient derived; assay type: cell-based
Method: (§1) The in vitro activity of nifuratel sulfoxide racemate, R-nifuratel sulfoxide and S-nifuratel sulfoxide was tested on a panel of bacteria, which included both Gram positive and Gram negative bacteria.
(§2) The minimum inhibitory concentrations (MICs) of the compounds were determined by the broth microdilution method or by the agar dilution method, according to the National Committee for Clinical Laboratory Standards (CLSI) reference methods M07-A8 and M11-A7.
(§3) The efficiency coefficient (EC) of nifuratel sulfoxide vs. nifuratel was calculated for each tested strain as follows: EC = relative oral bioavailability*[…] [formula]
(§4) Where: • nifS = nifuratel sulfoxide • nif = nifuratel • EC = 1 is indicative of equivalent efficiency between nifuratel sulfoxide and nifuratel. • EC < 1 is indicative of a lower efficiency of nifuratel sulfoxide vs. nifuratel • EC > 1 is indicative of a higher efficiency of nifS vs. nif

[2] = tested on: Shigella sonnei ATCC 11060; assay: as above; assay type: cell-based
Method: as §1, §2, §3, §4

[3] = tested on: Neisseria gonorrhoeae ATCC 19424; assay: as above; assay type: cell-based; conditions: broth microdilution, Neisseria gonorrhoeae ATCC 19424
Method: as §1, §2, §3, §4

[4] = tested on: Klebsiella pneumonia ATCC 10031; assay: as above; assay type: cell-based; conditions: broth microdilution, Klebsiella pneumonia ATCC 10031
Method: as §1, §2, §3, §4

[5] = tested on: Salmonella typhimurium ATCC 14028; assay: as above; assay type: cell-based; conditions: broth microdilution, Salmonella typhimurium ATCC 14028
Method: as §1, §2, §3, §4

[6] = tested on: Escherichia coli ATCC 11775; assay: as above; assay type: cell-based; conditions: broth microdilution, Escherichia coli ATCC 11775
Method: as §1, §2, §3, §4

[7] = tested on: Proteus mirabilis ATCC 14153; assay: as above; assay type: cell-based; conditions: broth microdilution, Proteus mirabilis ATCC 14153
Method: as §1, §2, §3, §4

[8] = tested on: Staphylococcus aureus (MRSA); assay: as above; assay type: cell-based; conditions: broth microdilution, Staphylococcus aureus (MRSA)
Method: as §1, §2, §3, §4

[9] = tested on: Micrococcus pyogenes ATCC 11631; assay: as above; assay type: cell-based; conditions: broth microdilution, Micrococcus pyogenes ATCC 11631
Method: as §1, §2, §3, §4

[10] = tested on: Lactobacillus iners ATCC 55195; assay: MIC by broth microdilution method (CLSI M07-A8 / M11-A7); assay type: cell-based; conditions: broth microdilution, Lactobacillus iners ATCC 55195
Method: The in vitro activity of nifuratel sulfoxide racemate, R-nifuratel sulfoxide and S-nifuratel sulfoxide was tested on a panel of bacteria, which included both Gram positive and Gram negative bacteria. The minimum inhibitory concentrations (MICs) of the compounds were determined by the broth microdilution method or by the agar dilution method, according to the National Committee for Clinical Laboratory Standards (CLSI) reference methods […]-A8 and M11-A7.

Gardnerella vaginalis = assay: MIC by agar dilution method (CLSI M07-A8 / M11-A7); efficiency coefficient derived; assay type: cell-based; conditions: for in vitro antimicrobial activity (in words): tested Gardnerella vaginalis strains
Method: as §1, §2, §3, §4

Atopobium vaginae = assay: as above; assay type: cell-based; conditions: for MIC: agar dilution; for in vitro antimicrobial activity (in words): tested Atopobium vaginae strains
Method: as §1, §2, §3, §4

[11] = Metabolic profiling of nifuratel in human urines by LC/MS/MS after oral administration; assay type: in vivo; conditions: two subjects treated orally with nifuratel; attributed by mass spectrometry
Method: As a matter of fact, metabolic profiling of nifuratel, following oral administration, was assessed in human urines by liquid chromatography/tandem mass spectrometry (LC/MS/MS).
More in details, urines of two subjects treated orally with nifuratel were collected at the following time-points: pre-dose, 0-4, 4-8, 8-12, 12-24, 24-36 and 36-48 h after treatment.
Nifuratel was not detected in any of the urine samples. […] Based on such a discovery, the applicant has performed both in vitro and in vivo tests in order to establish whether nifuratel sulfoxide is endowed with anti-bacterial activity.

[12] = Rat pharmacokinetics in plasma, non compartmental analysis; assay type: in vivo, male rats; conditions: male rats; for Cmax: read-out: Cmax; for Tmax: read-out: Tmax (converted)
Method: The pharmacokinetic profiles in plasma of nifuratel and nifuratel sulfoxide were tested after intravenous administration (2mg/kg) and oral gavage (15mg/kg) in male rats. […]

[13] = Salmonella enterica, read-out: MIC
[14] = 2mg/kg intravenous administration
[15] = rat, in vivo, IV (2mg/Kg), plasma, mean
[16] = rat, in vivo, XOS (15mg/kg), oral gavage, plasma, mean

In the case of C[S+]([O-])CC1CN(N=Cc2ccc([N+](=O)[O-])o2)C(=O)O1 (mixture of isomers) [S-Nifuratel sulfoxide, (S)-nifuratel sulfoxide], the MIC [1] is reported as 8 µg/mL, the MIC [2] is reported as 16 µg/mL and the MIC [3] is reported as 2 µg/mL. The MIC [4] was 16 µg/mL, the MIC [5] was 16 µg/mL and the MIC [6] was 16 µg/mL. For the same compound, the MIC [7] was 4 µg/mL, the MIC [8] was 16 µg/mL and the MIC [9] was 64 µg/mL. The MIC [10] was 32 µg/mL, the MIC (Gardnerella vaginalis; agar dilution, strain ATCC 14018) was 16 µg/mL and the MIC (Gardnerella vaginalis; agar dilution, strain C2) was 16 µg/mL. The MIC (Gardnerella vaginalis; agar dilution, strain D2) was 16 µg/mL, the MIC (Gardnerella vaginalis; agar dilution, strain E2) was 32 µg/mL and the MIC (Gardnerella vaginalis; agar dilution, strain G2) was 16 µg/mL. It also gave an MIC (Gardnerella vaginalis; agar dilution, strain H2) of 8 µg/mL, an MIC (Gardnerella vaginalis; agar dilution, strain J2) of 16 µg/mL and an MIC (Gardnerella vaginalis; agar dilution, strain K2) of 32 µg/mL. The “in vitro antimicrobial activity (in words)” value (Gardnerella vaginalis) was “good activity”, the MIC (Atopobium vaginae; strain CCUG 38953) was 2 µg/mL and the MIC (Atopobium vaginae; strain CCUG 39382) was 2 µg/mL. It also gave an MIC (Atopobium vaginae; strain CCUG 42099) of 16 µg/mL, an MIC (Atopobium vaginae; strain CCUG 43049) of 8 µg/mL and an MIC (Atopobium vaginae; strain CCUG 44061) of 1 µg/mL. For the same compound, the MIC (Atopobium vaginae; strain CCUG 44156) was 2 µg/mL, the MIC (Atopobium vaginae; strain CCUG 48515) was 2 µg/mL and the MIC (Atopobium vaginae; strain CCUG 55226) was 8 µg/mL. For the same compound, the MIC (Atopobium vaginae; strain CCUG 55227) was 4 µg/mL and the “in vitro antimicrobial activity (in words)” value (Atopobium vaginae) was “good activity”.

With C[S+]([O-])CC1CN(/N=C/c2ccc([N+](=O)[O-])o2)C(=O)O1 (racemic) [Nifuratel sulfoxide, nifuratel sulfoxide] the “metabolite found in urine” value [11] was “major metabolite”, the MIC [1, 13] was 8 µg/mL (≈ 26.6 µM) and the MIC ([2]; ATCC11060, read-out: MIC) was 16 µg/mL (≈ 53.1 µM). It also gave an MIC ([3]; ATCC19424, read-out: MIC) of 2 µg/mL (≈ 6.64 µM), an MIC ([4]; Klebsiella pneumoniae, ATCC10031, read-out: MIC) of 16 µg/mL (≈ 53.1 µM) and an MIC [5, 13] of 32 µg/mL (≈ 106 µM). For the same compound, the MIC ([6]; ATCC11775, read-out: MIC) was 16 µg/mL (≈ 53.1 µM), the MIC ([7]; ATCC14153, read-out: MIC) was 8 µg/mL (≈ 26.6 µM) and the MIC ([8]; read-out: MIC) was 16 µg/mL (≈ 53.1 µM). The MIC ([9]; Staphylococcus aureus, ATCC11631, read-out: MIC) was 32 µg/mL (≈ 106 µM), the “AUC, folds higher than nifuratel” value [12, 14] was “over 5 folds” and the “Cmax, folds higher than nifuratel” value [12, 14] was 4 folds. The “clearance, folds slower with respect to nifuratel” value [12, 14] was “over 5 folds”, the “AUC, folds higher than nifuratel” value ([12]; 15mg/kg oral administration) was 30 folds and the “Cmax, folds higher than nifuratel” value ([12]; 15mg/kg oral administration) was 37 folds. The “increased bioavailability versus nifuratel” value ([12]; 15mg/kg oral administration) was 5 fold, the T1/7 ([12]; IV (2mg/Kg), plasma, mean) was 15.5 min and the Tlast ([12]; IV (2mg/Kg), plasma, mean) was 120 min. The Vss ([12]; IV (2mg/Kg), plasma, mean) was 0.865 kg⁻¹, the “Mean Fpo” value ([12]; XOS (15mg/kg), oral gavage) was 11% and the Tlast ([12]; XOS (15mg/kg), oral gavage, plasma, mean) was 240 min. It also gave an AUC(0-inf) [12, 15] of 703 ng·h/mL, an AUC(0-t) [12, 15] of 700 ng·h/mL and an MRT [12, 15] of 17.7 min. It also gave a clearance [12, 15] of 47.5 mL/min/kg, a C0 ([12]; rat, in vivo, IV (2mg/Kg), plasma, mean, read-out: C0) of 2820 ng/mL and a concentration at 120 min ([12]; rat, in vivo, IV (2mg/Kg), plasma, mean, read-out: Clast) of 73 ng/mL. For the same compound, the Cmax [12, 15] was 2220 ng/mL, the Tmax [12, 15] was 2 min and the AUC(0-t) [12, 16] was 605 ng·h/mL. The MRT [12, 16] was 94 min, the half-life [12, 16] was 128 min and the concentration at 240 min ([12]; rat, in vivo, XOS (15mg/kg), oral gavage, plasma, mean, read-out: Clast) was 80.6 ng/mL. For the same compound, the Cmax [12, 16] was 298 ng/mL, the Tmax [12, 16] was 23 min and the MIC ([10]; ATCC55195, read-out: MIC) was 16 µg/mL (≈ 53.1 µM). It also gave an MIC (Gardnerella vaginalis; Gardnerella vaginalis, ATCC14018, agar dilution, strain ATCC 14018, read-out: MIC) of 8 µg/mL (≈ 26.6 µM), an MIC (Gardnerella vaginalis; Gardnerella vaginalis, agar dilution, strain C2, read-out: MIC) of 16 µg/mL (≈ 53.1 µM) and an MIC (Gardnerella vaginalis; Gardnerella vaginalis, agar dilution, strain D2, read-out: MIC) of 32 µg/mL (≈ 106 µM). For the same compound, the MIC (Gardnerella vaginalis; Gardnerella vaginalis, agar dilution, strain E2, read-out: MIC) was 32 µg/mL (≈ 106 µM), the MIC (Gardnerella vaginalis; Gardnerella vaginalis, agar dilution, strain G2, read-out: MIC) was 32 µg/mL (≈ 106 µM) and the MIC (Gardnerella vaginalis; Gardnerella vaginalis, agar dilution, strain H2, read-out: MIC) was 8 µg/mL (≈ 26.6 µM). The MIC (Gardnerella vaginalis; Gardnerella vaginalis, agar dilution, strain J2, read-out: MIC) was 32 µg/mL (≈ 106 µM), the MIC (Gardnerella vaginalis; Gardnerella vaginalis, agar dilution, strain K2, read-out: MIC) was 32 µg/mL (≈ 106 µM) and the “in vitro antimicrobial activity (in words)” value (Gardnerella vaginalis) was “good activity”. For the same compound, the MIC (Atopobium vaginae; Fannyhessea vaginae, CCUG38953, strain CCUG 38953, read-out: MIC) was 2 µg/mL (≈ 6.64 µM), the MIC (Atopobium vaginae; Fannyhessea vaginae, CCUG39382, strain CCUG 39382, read-out: MIC) was 1 µg/mL (≈ 3.32 µM) and the MIC (Atopobium vaginae; Fannyhessea vaginae, CCUG42099, strain CCUG 42099, read-out: MIC) was 2 µg/mL (≈ 6.64 µM). The MIC (Atopobium vaginae; Fannyhessea vaginae, CCUG43049, strain CCUG 43049, read-out: MIC) was 4 µg/mL (≈ 13.3 µM), the MIC (Atopobium vaginae; Fannyhessea vaginae, CCUG44061, strain CCUG 44061, read-out: MIC) was 1 µg/mL (≈ 3.32 µM) and the MIC (Atopobium vaginae; Fannyhessea vaginae, CCUG44156, strain CCUG 44156, read-out: MIC) was 1 µg/mL (≈ 3.32 µM). The MIC (Atopobium vaginae; Fannyhessea vaginae, CCUG48515, strain CCUG 48515, read-out: MIC) was 2 µg/mL (≈ 6.64 µM), the MIC (Atopobium vaginae; Fannyhessea vaginae, CCUG55226, strain CCUG 55226, read-out: MIC) was 4 µg/mL (≈ 13.3 µM) and the MIC (Atopobium vaginae; Fannyhessea vaginae, CCUG55227, strain CCUG 55227, read-out: MIC) was 4 µg/mL (≈ 13.3 µM). For the same compound, the “in vitro antimicrobial activity (in words)” value (Atopobium vaginae) was “good activity”.

Source: patent EP2797914B1, “NIFURATEL SULFOXIDE FOR USE IN THE TREATMENT OF BACTERIAL INFECTIONS” (Polichem SA, priority 2011, dated 2013)
